Test results published in patent US20250163104A1, “MACROCYCLIC IMMUNOMODULATORS” (priority 2021, published 2025).
Where a SMILES comes first, the peptide text is derived from it. Bridges are numbered along the chain shown (N, C = ends). [ ]: non-standard residue; d: D form. The star is where a group is joined. Phe(3-CF3) = N[C@@H](Cc1cccc(C(F)(F)F)c1)C(=O)O; Ala(morpholin-4-yl) = N[C@@H](CN1CCOCC1)C(=O)O; Phe(4-COOH) = N[C@@H](Cc1ccc(C(=O)O)cc1)C(=O)O; Bip = N[C@@H](Cc1ccc(-c2ccccc2)cc1)C(=O)O; Phe(4-NH2) = Nc1ccc(C[C@H](N)C(=O)O)cc1; Phe(3-Me) = Cc1cccc(C[C@H](N)C(=O)O)c1; hPhe = N[C@@H](CCc1ccccc1)C(=O)O; Cha = N[C@@H](CC1CCCCC1)C(=O)O; Cit = NC(=O)NCCC[C@H](N)C(=O)O; Carboxymethyl = O=C(O)C*; Orn = NCCC[C@H](N)C(=O)O; Dab = NCC[C@H](N)C(=O)O; Abu = CC[C@H](N)C(=O)O; Dap = NC[C@H](N)C(=O)O; Propargyl = C#CC*

target: T1, human PD-1 / PD-L1-Ig binding on Jurkat cell line over-expressing human PD-1 (Jurkat-PD-1) (Homo sapiens, UniProt Q15116); assay: Jurkat-PD-1 Cell Binding High-Content Screening Assay (CBA); assay type: cell-based; details: Jurkat-PD-1 cells, PE-labeled PD-L1-Ig 20 nM final; read-out: Jurkat HPD1_PDL1 IC50
T1 construct: expressed in transfected cells; host or cells: Jurkat
T1 sequence (Q15116 25-288): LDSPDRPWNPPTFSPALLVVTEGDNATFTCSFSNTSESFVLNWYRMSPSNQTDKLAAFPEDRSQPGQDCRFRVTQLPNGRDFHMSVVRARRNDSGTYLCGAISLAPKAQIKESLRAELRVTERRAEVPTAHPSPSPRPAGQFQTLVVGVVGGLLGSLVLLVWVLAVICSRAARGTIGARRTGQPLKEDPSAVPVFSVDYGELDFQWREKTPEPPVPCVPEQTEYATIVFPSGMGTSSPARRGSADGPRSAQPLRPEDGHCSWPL
Method in brief: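 Compounds were preincubated with Jurkat-hPD-1 cells in DMEM plus 10% fetal calf serum for 2 h at 37° C. Phycoerythrin-labeled PD-L1-Ig (20 nM final) was then added for 1 hour. Cells were fixed in 4% paraformaldehyde with Hoechst 33342, and bound fluorescence was quantified by high-content imaging.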

| IC50 | Compound |
| --- | --- |
| 15.4 nM | CC(C)C[C@H]1NC(=O)[C@H](CCCN)NC(=O)[C@H](CCC(=O)O)NC(=O)[C@H](Cc2ccc(-c3ccccc3)cc2)NC(=O)[C@H](C(C)C)NC(=O)[C@H](Cc2ccccc2F)NC(=O)[C@H](CC(=O)O)NC(=O)[C@H](Cc2ccc(C#N)cc2)NC(=O)[C@H](CN)NC(=O)CSC[C@@H](C(=O)N[C@@H](C)C(N)=O)NC(=O)[C@H]([C@@H](C)O)NC(=O)[C@H](C(C)C)NC(=O)[C@H](CC2CCCCC2)NC(=O)[C@H](CCN)NC1=O [Compound 2214] |
| 7.9 nM | CC(C)C[C@H]1NC(=O)[C@H](CCCN)NC(=O)[C@H](CCCNC(N)=O)NC(=O)[C@H](Cc2ccc(-c3ccccc3)cc2)NC(=O)[C@H](C(C)C)NC(=O)[C@H](Cc2c[nH]c3ccccc23)NC(=O)[C@H](CC(=O)O)NC(=O)[C@H](CCc2ccccc2)NC(=O)[C@H](CN)NC(=O)CSC[C@@H](C(=O)N[C@@H](C)C(N)=O)NC(=O)[C@H]([C@@H](C)O)NC(=O)[C@H](C(C)C)NC(=O)[C@H](CC2CCCCC2)NC(=O)[C@H](CCN)NC1=O [Compound 2126] ({CH2CO}-[Dap][hPhe]DWV[Bip][Cit][Orn][dL][Dab][Cha]VTCA-NH2; thioether N-14) |
| 2.3 nM | C#CCOc1ccc(C[C@@H]2NC(=O)[C@H](Cc3ccc(-c4ccccc4)cc3)NC(=O)[C@H](Cc3ccc(C(=O)O)cc3)NC(=O)[C@H](Cc3cccc(C)c3)NC(=O)[C@H](CC(=O)O)NC(=O)[C@H](Cc3ccc(C(=O)O)cc3)NC(=O)[C@H](CC)NC(=O)CSC[C@@H](C(=O)N[C@@H](CCN)C(N)=O)NC(=O)[C@H](CCC(=O)O)NC(=O)[C@H](C(C)C)NC(=O)[C@H](CC3CCCCC3)NC(=O)[C@H](CCN)NC(=O)[C@@H](CC(C)C)NC(=O)[C@H](CCCN)NC2=O)cc1 [Compound 1839] ({CH2CO}-[Abu][Phe(4-COOH)]D[Phe(3-Me)][Phe(4-COOH)][Bip]Y(Propargyl)[Orn][dL][Dab][Cha]VEC[Dab]-NH2; thioether N-14) |
| 25 nM | CCC(C)[C@@H]1NC(=O)[C@H](Cc2ccc(-c3ccccc3)cc2)NC(=O)[C@H](C(C)C)NC(=O)[C@H](Cc2cccc(C)c2)NC(=O)[C@H](CC(=O)O)NC(=O)[C@H](Cc2ccc(-c3cccc(C(=O)O)c3)cc2)NC(=O)[C@H](CC(N)=O)NC(=O)CSC[C@@H](C(=O)N[C@@H](C)C(N)=O)NC(=O)[C@H]([C@@H](C)O)NC(=O)[C@H](C(C)C)NC(=O)[C@H](CC2CCCCC2)NC(=O)[C@H](CCN)NC(=O)[C@@H](CC(C)C)NC(=O)[C@H](CCCN)NC1=O (some centres unmarked) [Compound 2222] |
| 63.6 nM | C#CC[C@H](NC(=O)[C@H](C)NC(=O)[C@@H]1CSCC(=O)N[C@@H](CN)C(=O)N[C@@H](Cc2ccc(OCC(=O)O)cc2)C(=O)N[C@@H](CC(=O)O)C(=O)N[C@@H](Cc2cccc(C)c2)C(=O)N[C@@H](C(C)C)C(=O)N[C@@H](Cc2ccc(-c3ccccc3)cc2)C(=O)N[C@@H](CCCNC(N)=O)C(=O)N[C@@H](CCCN)C(=O)N[C@H](CC(C)C)C(=O)N[C@@H](CCN)C(=O)N[C@@H](CC2CCCCC2)C(=O)N[C@@H](C(C)C)C(=O)N[C@@H]([C@@H](C)O)C(=O)N1)C(=O)O [Compound 2262] |
| 50.8 nM | CC(=O)NCCCC[C@@H]1NC(=O)[C@H](CCCNC(N)=O)NC(=O)[C@H](Cc2ccc(-c3ccccc3)cc2)NC(=O)[C@H](CC(C)C)NC(=O)[C@H](Cc2c[nH]c3ccccc23)NC(=O)[C@H](CC(N)=O)NC(=O)[C@H](Cc2ccc(OCC(=O)O)cc2)NC(=O)[C@H](Cc2ccccc2)NC(=O)CSC[C@@H](C(=O)N[C@@H](C)C(N)=O)NC(=O)[C@H](CO)NC(=O)[C@H](C(C)C)NC(=O)[C@H](CC2CCCCC2)NC(=O)[C@H](CC(N)=O)NC(=O)[C@@H](CC(C)C)NC1=O [Compound 2502] ({CH2CO}-FY(Carboxymethyl)NWL[Bip][Cit]K(Ac)[dL]N[Cha]VSCA-NH2; thioether N-14) |
| 16 nM | Cc1cccc(C[C@@H]2NC(=O)[C@H](CC(=O)O)NC(=O)[C@H](Cc3ccc(OCC(=O)O)cc3)NC(=O)[C@H](CN)NC(=O)CSC[C@@H](C(=O)N[C@@H](C)C(N)=O)NC(=O)[C@H]([C@@H](C)O)NC(=O)[C@H](C(C)C)NC(=O)[C@H](CC3CCCCC3)NC(=O)[C@H](CCN)NC(=O)[C@@H](CC(C)C)NC(=O)[C@H](CCCN)NC(=O)[C@H](CCCN)NC(=O)[C@H](Cc3ccc(-c4ccccc4)cc3)NC(=O)[C@H](C(C)C)NC2=O)c1 [Compound 1311] ({CH2CO}-[Dap]Y(Carboxymethyl)D[Phe(3-Me)]V[Bip][Orn][Orn][dL][Dab][Cha]VTCA-NH2; thioether N-14) |
| 68.9 nM | CC(C)C[C@H]1NC(=O)[C@H](CCCN)NC(=O)[C@H](CCCNC(N)=O)NC(=O)[C@H](Cc2ccc(-c3ccccc3)cc2)NC(=O)[C@H](C(C)C)NC(=O)[C@H](Cc2c[nH]c3ccccc23)NC(=O)[C@H](CC(=O)O)NC(=O)[C@H](Cc2csc3ccccc23)NC(=O)[C@H](CN)NC(=O)CSC[C@@H](C(=O)N[C@@H](C)C(N)=O)NC(=O)[C@H]([C@@H](C)O)NC(=O)[C@H](C(C)C)NC(=O)[C@H](CC2CCCCC2)NC(=O)[C@H](CCN)NC1=O [Compound 2114] |
| 35.8 nM | CC(C)C[C@@H]1NC(=O)[C@H](CCN)NC(=O)[C@@H](CC(C)C)NC(=O)[C@H](CCCN)NC(=O)[C@H](CCCNC(=N)N)NC(=O)[C@H](Cc2ccc(-c3ccccc3)cc2)NC(=O)[C@H](C(C)C)NC(=O)[C@H](Cc2c[nH]c3ccccc23)NC(=O)[C@H](CC(=O)O)NC(=O)[C@H](Cc2ccc(O)cc2)NC(=O)[C@H](CC(N)=O)NC(=O)CSC[C@@H](C(=O)N[C@@H](C)C(N)=O)NC(=O)[C@H]([C@@H](C)O)NC(=O)[C@H](C(C)C)NC1=O [Compound 1005] ({CH2CO}-NYDWV[Bip]R[Orn][dL][Dab]LVTCA-NH2; thioether N-14) |
| 28.6 nM | CC(C)C[C@@H]1NC(=O)[C@H](CCN)NC(=O)[C@@H](CC(C)C)NC(=O)[C@H](CCCN)NC(=O)[C@H](C(C)C)NC(=O)[C@H](Cc2ccc(-c3ccccc3)cc2)NC(=O)[C@H](C(C)C)NC(=O)[C@H](Cc2c[nH]c3ccccc23)NC(=O)[C@H](CC(N)=O)NC(=O)[C@H](Cc2ccc(O)cc2)NC(=O)[C@H](CC(N)=O)NC(=O)CSC[C@@H](C(=O)NCC(N)=O)NC(=O)[C@H](CO)NC(=O)[C@H](C(C)C)NC1=O [Compound 1081] ({CH2CO}-NYNWV[Bip]V[Orn][dL][Dab]LVSCG-NH2; thioether N-14) |
| 2.2 nM | CC(C)C[C@H]1NC(=O)[C@H](CCCN)NC(=O)[C@H](Cc2ccc(C(=O)O)cc2)NC(=O)[C@H](Cc2ccc(-c3ccccc3)cc2)NC(=O)[C@H](Cc2ccc(N)cc2)NC(=O)[C@H](Cc2cccc(C(F)(F)F)c2)NC(=O)[C@H](CC(=O)O)NC(=O)[C@H](Cc2ccc(C(=O)O)cc2)NC(=O)[C@H](CN2CCOCC2)NC(=O)CSC[C@@H](C(=O)N[C@@H](CCN)C(N)=O)NC(=O)[C@H](CCC(=O)O)NC(=O)[C@H](C(C)C)NC(=O)[C@H](CC2CCCCC2)NC(=O)[C@H](CCN)NC1=O [Example 2743] ({CH2CO}-[Ala(morpholin-4-yl)][Phe(4-COOH)]D[Phe(3-CF3)][Phe(4-NH2)][Bip][Phe(4-COOH)][Orn][dL][Dab][Cha]VEC[Dab]-NH2; thioether N-14) |
